Where two headings read alike, the source gives them in different places.
Columns and labels:
[1] = tested on: acute myeloid leukemia cell line MV4-11; experiment: Growth of cancer cells, Cell Titer-Glo GI50, MV4-11; conditions: read-out: GI50 MV4-11
[2] = tested on: acute myeloid leukemia cell line MOLM14; experiment: Growth of cancer cells, Cell Titer-Glo GI50, MOLM14; format: cell-based; conditions: incubated for 72 hours, Cell Titer-Glo, read-out: GI50 MOLM 14
[3] = tested on: human colorectal cancer cell DLD1; experiment: Growth of cancer cells, Cell Titer-Glo GI50, DLD1; format: cell-based
[4] = tested on: cervical cancer cell HeLa; experiment: cells; conditions: Homo sapiens, 72 h, read-out: GI50 HeLa
[5] = tested on: gastrointestinal stromal tumor GIST-T1; experiment: cells; conditions: Homo sapiens, GISTT1, 72 h, read-out: GI50 GIST-T1
[6] = tested on: acute myeloid leukemia cell line MOLM13; experiment: Growth of cancer cells, Cell Titer-Glo GI50, MOLM13; format: cell-based; conditions: incubated for 72 hours, Cell Titer-Glo, Table 1, read-out: GI50 MOLM 13
[7] = tested on: human ovarian granulosa tumor cell COV434; experiment: Growth of cancer cells, Cell Titer-Glo GI50, COV434; format: cell-based; conditions: read-out: GI50 COV434
[8] = tested on: human chronic myeloid leukemia cell K562; experiment: Growth of cancer cells, Cell Titer-Glo GI50, K562; format: cell-based; conditions: incubated for 72 hours, Cell Titer-Glo, read-out: GI50 K562
[9] = tested on: human colorectal cancer cell HCT116; experiment: Growth of cancer cells, Cell Titer-Glo GI50, HCT116; format: cell-based
[10] = tested on: histiocytic lymphoma U-937; experiment: Growth of cancer cells, Cell Titer-Glo GI50, U937; format: cell-based; conditions: Homo sapiens, U-937; incubated for 72 hours, Cell Titer-Glo; read-out: GI50 U937
[11] = tested on: acute myeloid leukemia cell line OCI-AML-3; experiment: Growth of cancer cells, Cell Titer-Glo GI50, OCI-AML-3; format: cell-based; conditions: Homo sapiens; incubated for 72 hours, Cell Titer-Glo; read-out: GI50 AML3
lymphoma cell WSU-DLCL2 [12] = experiment: cells; conditions: Homo sapiens, WSUDLCL2, 72 h, read-out: GI50 WSU-DLCL2
lymphoma cell WSU-DLCL2 [13] = conditions: read-out: GI50 WSU-DLCL2; incubated for 72 hours, Cell Titer-Glo
CDK9/CyclinT1 protein = CDK9/CyclinT1 protein (Homo sapiens (Human), UniProt P50750); experiment: Enzyme activity assay of CDK9 protein inhibition in vitro, CDK9/CyclinT1; conditions: read-out: CDK9/CyclinT1 Protein activity (IC50)
[14] = tested on: cervical cancer cell HeLa; conditions: read-out: GI50 HeLa; incubated for 72 hours, Cell Titer-Glo
[15] = tested on: gastrointestinal stromal tumor GIST-T1; conditions: read-out: GI50 GIST-T1; incubated for 72 hours, Cell Titer-Glo
[16] = incubated for 72 hours, Cell Titer-Glo

Sequence of CDK9/CyclinT1 protein (P50750 whole entry): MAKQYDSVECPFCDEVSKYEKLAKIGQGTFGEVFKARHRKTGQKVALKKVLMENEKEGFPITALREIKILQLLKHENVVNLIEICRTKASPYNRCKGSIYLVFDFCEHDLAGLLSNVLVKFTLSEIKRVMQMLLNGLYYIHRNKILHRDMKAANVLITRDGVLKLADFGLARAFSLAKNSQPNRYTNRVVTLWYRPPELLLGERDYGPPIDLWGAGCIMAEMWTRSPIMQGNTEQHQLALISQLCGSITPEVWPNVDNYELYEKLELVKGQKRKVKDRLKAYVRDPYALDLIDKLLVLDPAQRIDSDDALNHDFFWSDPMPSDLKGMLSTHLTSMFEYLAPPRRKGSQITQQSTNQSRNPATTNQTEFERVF
Sequence of CDK9/CyclinT1 protein (O60563 whole entry partner): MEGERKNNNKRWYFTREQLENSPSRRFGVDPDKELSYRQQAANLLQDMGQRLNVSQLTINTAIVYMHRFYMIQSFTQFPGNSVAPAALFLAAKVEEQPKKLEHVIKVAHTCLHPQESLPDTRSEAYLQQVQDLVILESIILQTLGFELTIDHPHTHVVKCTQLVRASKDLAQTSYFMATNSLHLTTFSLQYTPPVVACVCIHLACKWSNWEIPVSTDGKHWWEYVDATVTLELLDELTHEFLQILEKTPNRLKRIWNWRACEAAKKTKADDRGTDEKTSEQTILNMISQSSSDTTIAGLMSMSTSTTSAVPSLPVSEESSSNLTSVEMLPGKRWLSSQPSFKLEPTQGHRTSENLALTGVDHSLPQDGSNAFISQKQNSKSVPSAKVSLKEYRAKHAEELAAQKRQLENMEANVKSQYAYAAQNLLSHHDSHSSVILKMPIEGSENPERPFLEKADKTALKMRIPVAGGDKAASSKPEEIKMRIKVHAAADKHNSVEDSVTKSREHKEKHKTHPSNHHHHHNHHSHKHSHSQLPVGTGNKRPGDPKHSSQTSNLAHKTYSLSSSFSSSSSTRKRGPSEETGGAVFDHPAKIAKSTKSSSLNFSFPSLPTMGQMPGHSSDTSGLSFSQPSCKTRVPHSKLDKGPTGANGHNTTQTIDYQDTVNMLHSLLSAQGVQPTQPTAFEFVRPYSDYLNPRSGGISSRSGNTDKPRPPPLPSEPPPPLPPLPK

CCc1cnn2c(NCc3ccc[n+]([O-])c3)cc(N3CCCC[C@H]3CCO)nc12 [Dinaciclib, reference compound]
GI50 ([1]; Homo sapiens, MV4-11, 72 h): 22 nM | GI50 ([2]; Homo sapiens, MOLM-14): 18 nM | GI50 ([3]; Homo sapiens, DLD-1, incubated for 72 hours): 30 nM | GI50 [4]: 16.5 nM | GI50 [5]: 15 nM | GI50 ([6]; Homo sapiens, MOLM-13): 11 nM | GI50 ([7]; Homo sapiens, COV434, 72 h): 8 nM | GI50 ([8]; Homo sapiens, K562): 53 nM | GI50 ([9]; Homo sapiens, HCT-116, incubated for 72 hours): 15 nM | GI50 [10]: 5 nM | GI50 [11]: 4 nM | GI50 (lymphoma cell WSU-DLCL2 [12]): 13 nM

COC[C@@H](C)NC1CCC(Nc2cc(-c3csc(NCC4(C#N)CCOCC4)n3)c(Cl)cn2)CC1 (some centres unmarked) [JSH-009, reference compound]
GI50 [1, 16]: 6 nM | GI50 [2]: 4 nM | GI50 ([3]; incubated for 72 hours): 106 nM | GI50 (lymphoma cell WSU-DLCL2 [13]): 16 nM | IC50 (CDK9/CyclinT1 protein): 29 nM | GI50 [6]: 4 nM | GI50 [7, 16]: 30 nM | GI50 [8]: 9 nM | GI50 [14]: 18 nM | GI50 [15]: 34 nM | GI50 ([9]; incubated for 72 hours): 23 nM
